# Several values for one entry are separate records, joined by “and”; a condition that tells them apart may be missing. Equal entries are not always repeated. Where two headings read alike, the source gives them in different places.
# Key:
# [1] = target: T1, rNav1.2 sodium channels (HEK-293 cells) (Rattus norvegicus, UniProt P04775); assay: steady-state inactivation protocol (availability curves), QPatch automated patch-clamp; assay type: cell-based
# Description: (§1) A)–D) Peak amplitudes of evoked currents (5 Hz trains of 5 depolarizations from −90 to −10 mV) are plotted against time. Black dots: Control. Grey dots: Drug perfusion. […] Calculation of properties of inhibition is illustrated. […] E) Calculation of Kr and Ki values from steady-state availability curves.
# Standard steady-state inactivation protocols were used to measure the shift of steady-state availability curve caused by the drugs. Currents were evoked by a 10 ms test pulse to −10 mV, preceded by 400 ms pre-pulses from −150 to −30 mV. […] Because the inhibition at hyperpolarized potentials (Inh−150), and the shift of the availability curves (ΔV1/2) are both concentration-dependent properties, we calculated affinities to hyperpolarized and depolarized states (“resting state affinity”: Kr, and “inactivated state affinity”: Ki), which, on the other hand, are concentration-independent characteristics of individual drugs. Calculation of Kr and Ki values are described in Materials and Methods, and illustrated in Figure 1E. State-dependence (SD) was quantified as the ratio Kr/Ki.
# (§2) HEK-293 cells stably expressing rNav1.2 sodium channels were obtained from NeuroSearch (Ballerup, Denmark).
# (§3) Cells were automatically prepared for application to the chips (centrifuged and washed twice, then resuspended in extracellular solution) as described previously. Composition of the extracellular solution was: (in mM): 140 NaCl, 3 KCl, 1 CaCl2, 1 MgCl2, 0.1 CdCl2, 20 TEA-Cl, 5 HEPES, adjusted to pH 7.3, Osmolality: ∼320 mOsm.
# (§4) All electrophysiological experiments were conducted on Qpatch-16 or QPatch HT instruments using QPlate™ chips. For a detailed description of the instrument and the patch-clamp chips see [37], [38]. Data were sampled at a frequency of 25 kHz and filtered at 5 kHz. […] The amplifier was controlled and the data were collected by the Sophion QPatch client software. For initial data analysis the QPatch software was used. Built-in amplifiers provide an improved method for series resistance compensation. Leak subtraction (based on a standard P/n protocol) was used to subtract the capacitive component of currents.
# Inactivated affinity (Ki) values were calculated assuming a simple four-state model of drug binding and channel gating, using two separate methods: (1) from the shift of the availability curve (ΔV1/2), the slope of the Boltzmann fit of the availability curve (k) and Kr, using the formula described by Bean, Cohen and Tsien (Ki−ΔV1/2; see Figure 1E), or (2) from the apparent affinity (Kapp) at a certain pre-pulse potential, which was calculated from the inhibition (e.g. Inh−60) as described above, and the availability (h) at the same pre-pulse potential, using the formula from Kuo and Bean (Figure 1E). […] (Arithmetic means and SEM values are given in Results S7.)
# [2] = human plasma, cited from earlier work
# sodium channels = settings: averaged literature data, cited from earlier work; for Ki: read-out: Ki−Lit; for Kd: read-out: Kr−Lit
# [3] = target: T1, rNav1.2 sodium channels (HEK-293 cells); assay: 5 Hz train protocol, QPatch automated patch-clamp; assay type: cell-based; settings: for potency estimated from few doses: −90 mV, read-out: IC50;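 as to UD (use-dependence of the inhibition): UD = (A3/A4)/(A1/A2) as ratios of peak amplitudes from Figure 1A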
# Description: The dynamics of the onset and offset of inhibition was monitored using 5 Hz trains of five depolarizing pulses from a holding potential of −90 mV to −10 mV. The trains were repeated every 20 s. Drugs were applied after 10 control trains and 10 trains were delivered in the presence of the drug. The drug was then washed out, and the 10 trains were repeated.
# We measured inhibition (Inh; from which we calculated IC50 values as described in Materials and Methods), reversibility of inhibition (Rev) and use-dependence (UD), as well as time constant of onset (τon) and offset (τoff). The calculation of IC50, quantification of Rev and UD, and the determination of time constants are illustrated in Figure 1A. Because τon should be concentration-dependent if we assume a single binding reaction, we excluded it from the analyses. […] Comments on the interpretation of these properties (Rev, […] and UD) are in Results S1.
# as §1, §2, §3, §4
# From this protocol we extracted five parameters, as illustrated in Figure 1A. We calculated inhibition of a single “cc” concentration: Inh = (amplitudectr – amplitudedrug)/amplitudectr.
# [4] = HEK293, 30 µM, read-out: Inh (inhibited fraction) at holding potential −150 mV
# [5] = HEK293, 100 µM, read-out: Inh (inhibited fraction) at holding potential −150 mV
# [6] = 30 μM, 500 s assigned where irreversible
# [7] = HEK293, 30 μM, −90 mV holding potential, 5 Hz train, read-out: Inh (inhibited fraction)
# [8] = HEK293, calculated from Inh at single concentration 30 μM, 5 Hz train
# [9] = 30 μM, Rev = A5/A1 after washout
# [10] = arithmetic mean, 100 µM, read-out: Ki-Kapp arith
# [11] = arithmetic mean, 100 µM, read-out: Ki-ΔV1/2 arith
# [12] = arithmetic mean, 100 µM, read-out: Kr arith
# [13] = geometric mean, from Inh at −150 mV, 100 µM, read-out: Kr (resting state affinity)
# [14] = geometric mean, from apparent affinity, 100 µM, read-out: Ki−Kapp (inactivated state affinity)
# [15] = geometric mean, from shift of availability curve, 100 µM, read-out: Ki−ΔV1/2 (inactivated state affinity)
# [16] = 100 μM, 500 s assigned where irreversible
# [17] = 100 μM, Rev = A5/A1 after washout
# [18] = HEK293, 100 μM, −90 mV holding potential, 5 Hz train, read-out: Inh (inhibited fraction)
# [19] = HEK293, calculated from Inh at single concentration 100 μM, 5 Hz train
# [20] = arithmetic mean, 30 µM, read-out: Ki-Kapp arith
# [21] = arithmetic mean, 30 µM, read-out: Ki-ΔV1/2 arith
# [22] = arithmetic mean, 30 µM, read-out: Kr arith
# [23] = geometric mean, from Inh at −150 mV, 30 µM, read-out: Kr (resting state affinity)
# [24] = geometric mean, from apparent affinity, 30 µM, read-out: Ki−Kapp (inactivated state affinity)
# [25] = geometric mean, from shift of availability curve, 30 µM, read-out: Ki−ΔV1/2 (inactivated state affinity)
# T1 sequence (P04775 whole entry, the tested form may be a part): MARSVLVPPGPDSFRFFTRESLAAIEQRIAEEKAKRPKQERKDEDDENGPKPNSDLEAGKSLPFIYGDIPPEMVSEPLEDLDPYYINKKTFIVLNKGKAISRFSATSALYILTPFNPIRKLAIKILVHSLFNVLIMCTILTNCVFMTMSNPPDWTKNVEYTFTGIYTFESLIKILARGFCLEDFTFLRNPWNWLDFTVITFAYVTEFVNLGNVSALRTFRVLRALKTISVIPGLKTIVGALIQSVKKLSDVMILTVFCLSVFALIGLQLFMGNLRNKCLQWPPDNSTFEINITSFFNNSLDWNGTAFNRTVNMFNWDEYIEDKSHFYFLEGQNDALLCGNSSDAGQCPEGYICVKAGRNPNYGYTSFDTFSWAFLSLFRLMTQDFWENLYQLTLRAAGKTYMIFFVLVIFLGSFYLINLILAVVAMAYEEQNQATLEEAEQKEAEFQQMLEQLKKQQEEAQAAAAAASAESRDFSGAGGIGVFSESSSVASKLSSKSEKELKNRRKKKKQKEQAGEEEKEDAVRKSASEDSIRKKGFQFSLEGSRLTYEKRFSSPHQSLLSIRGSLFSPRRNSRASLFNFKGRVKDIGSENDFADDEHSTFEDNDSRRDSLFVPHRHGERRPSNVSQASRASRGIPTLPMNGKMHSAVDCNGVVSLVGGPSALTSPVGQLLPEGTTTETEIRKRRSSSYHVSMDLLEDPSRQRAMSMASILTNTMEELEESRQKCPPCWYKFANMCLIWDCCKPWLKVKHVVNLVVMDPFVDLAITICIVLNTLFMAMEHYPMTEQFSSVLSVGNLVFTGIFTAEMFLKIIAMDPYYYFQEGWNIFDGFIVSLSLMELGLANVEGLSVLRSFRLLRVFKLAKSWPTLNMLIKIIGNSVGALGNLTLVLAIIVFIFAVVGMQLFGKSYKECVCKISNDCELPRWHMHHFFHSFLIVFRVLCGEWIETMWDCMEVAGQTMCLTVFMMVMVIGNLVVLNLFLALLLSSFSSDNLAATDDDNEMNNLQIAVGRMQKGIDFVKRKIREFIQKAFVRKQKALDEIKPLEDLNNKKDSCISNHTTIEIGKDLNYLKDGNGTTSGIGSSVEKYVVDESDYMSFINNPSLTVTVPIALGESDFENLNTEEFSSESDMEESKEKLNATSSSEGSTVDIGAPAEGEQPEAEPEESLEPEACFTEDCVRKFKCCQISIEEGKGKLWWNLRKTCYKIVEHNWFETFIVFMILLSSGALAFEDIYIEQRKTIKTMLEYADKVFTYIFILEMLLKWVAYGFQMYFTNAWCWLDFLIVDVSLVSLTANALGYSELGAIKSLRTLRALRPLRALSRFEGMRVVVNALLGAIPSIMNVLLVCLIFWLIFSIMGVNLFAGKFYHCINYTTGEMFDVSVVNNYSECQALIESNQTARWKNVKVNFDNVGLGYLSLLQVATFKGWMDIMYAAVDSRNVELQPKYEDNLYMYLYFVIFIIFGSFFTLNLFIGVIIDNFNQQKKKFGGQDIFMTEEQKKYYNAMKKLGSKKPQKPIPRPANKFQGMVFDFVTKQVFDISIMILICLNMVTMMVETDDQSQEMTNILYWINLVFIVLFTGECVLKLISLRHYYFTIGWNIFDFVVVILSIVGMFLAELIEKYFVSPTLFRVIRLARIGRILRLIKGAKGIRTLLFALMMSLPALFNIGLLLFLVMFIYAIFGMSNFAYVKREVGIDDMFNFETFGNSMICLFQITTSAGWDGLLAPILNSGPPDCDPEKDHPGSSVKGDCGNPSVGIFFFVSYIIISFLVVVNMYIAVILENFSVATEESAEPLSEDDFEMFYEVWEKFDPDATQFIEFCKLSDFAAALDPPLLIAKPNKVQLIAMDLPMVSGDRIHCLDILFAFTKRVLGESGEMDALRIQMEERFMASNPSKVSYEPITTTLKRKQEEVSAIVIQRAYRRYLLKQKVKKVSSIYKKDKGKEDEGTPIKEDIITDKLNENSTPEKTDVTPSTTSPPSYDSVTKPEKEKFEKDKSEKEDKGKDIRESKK
"inhibition at 30 µM [1, 4]","inhibition at 100 µM [1, 5]",τon ([3]; 30 μM),"UD (use-dependence of the inhibition) ([3]; 30 μM, 5 Hz train)","τoff [3, 6]",use-dependence (UD) ([3]; 5 Hz train),"inhibition at 30 µM [3, 7]","potency estimated from few doses [3, 8]","Rev (reversibility) [3, 9]",Structure (SMILES),plasma conc. ([2]; as printed in each cell),plasma conc. ([2]; as printed in the µg/ml cell),Ki (sodium channels),Kd (sodium channels),other results
35%,–,32.02 s,1.32,51.82 s,–,62%,18.3 µM,0.43,"CNCCCN1c2ccccc2CCc2ccccc21 [DMI, Desipramine]",0.1 [44] µg/ml,0.330 µM,1.15 µM,29.2 µM,–
–,–,96.5 s,1.02,500 s,no use-dependence,78%,5.29 µM,0.01,"Cc1ccc(-c2nc(C)c(CN3CCN(C(c4ccccc4)c4ccccc4)CC3)[nH]2)cc1 [LIF, Lifarizine]",0.02 [59] µg/ml,0.046 µM,0.19 µM,10.2 µM,"ΔV1/2 (shift of availability curve) ([1]; 1 µM): −4.39 mV; inhibition at 1 µM ([1]; HEK293, 1 µM, read-out: Inh (inhibited fraction) at holding potential −150 mV): 2%; Ki ([1]; arithmetic mean, 1 µM, read-out: Ki-Kapp arith): 0.53 µM; Ki ([1]; arithmetic mean, 1 µM, read-out: Ki-ΔV1/2 arith): 0.96 µM; Kd ([1]; arithmetic mean, 1 µM, read-out: Kr arith): 63.2 µM; Kd ([1]; geometric mean, from Inh at −150 mV, 1 µM, read-out: Kr (resting state affinity)): 55.8 µM; Ki ([1]; geometric mean, from apparent affinity, 1 µM, read-out: Ki−Kapp (inactivated state affinity)): 0.5 µM; Ki ([1]; geometric mean, from shift of availability curve, 1 µM, read-out: Ki−ΔV1/2 (inactivated state affinity)): 0.91 µM and 0.92 µM; onset and offset kinetics (time constants) [3]: very slow kinetics; reversibility ([3]; 200 s of washout): apparent irreversibility; potency ([3]; in words): high potency"
–,21%,–,–,–,–,–,–,–,"Cc1ccc(C(=O)C(C)CN2CCCCC2)cc1 (stereo not drawn) [TOL, Tolperisone]",0.43 [57] µg/ml,1.508 µM,5.07 µM,384 µM,"ΔV1/2 (shift of availability curve) ([1]; 100 μM): −6.47 mV; Ki [1, 10]: 24.3 µM; Ki [1, 11]: 43.2 µM; Kd [1, 12]: 399 µM; Kd [1, 13]: 391 µM; Ki [1, 14]: 21 µM and 21.1 µM; Ki [1, 15]: 30.9 µM; τon ([3]; 100 μM): 5.57 s; UD (use-dependence of the inhibition) ([3]; 100 μM, 5 Hz train): 1.14; τoff [3, 16]: 7.42 s; Rev (reversibility) [3, 17]: 0.95; inhibition at 100 µM [3, 18]: 23%; potency estimated from few doses [3, 19]: 336 µM"
–,–,–,–,–,–,–,–,–,"CN(C)CCCN1c2ccccc2CCc2ccccc21 [IMI, Imipramine]",0.2 [44] µg/ml,0.631 µM,0.89 µM,26.5 µM,–
–,–,–,–,–,high,–,–,–,"O=C(NCC1CCCCN1)c1cc(OCC(F)(F)F)ccc1OCC(F)(F)F (stereo not drawn) [FLC, Flecainide]",–,–,5.55 µM,355 µM,"inhibition at 300 µM ([1]; HEK293, 300 µM, read-out: Inh (inhibited fraction) at holding potential −150 mV): 82%; Ki ([1]; arithmetic mean, 300 µM, read-out: Ki-Kapp arith): 6.1 µM; Ki ([1]; arithmetic mean, 300 µM, read-out: Ki-ΔV1/2 arith): 9.72 µM; Kd ([1]; arithmetic mean, 300 µM, read-out: Kr arith): 65 µM; Kd ([1]; geometric mean, from Inh at −150 mV, 300 µM, read-out: Kr (resting state affinity)): 64.7 µM; Ki ([1]; geometric mean, from apparent affinity, 300 µM, read-out: Ki−Kapp (inactivated state affinity)): 5.7 µM; Ki ([1]; geometric mean, from shift of availability curve, 300 µM, read-out: Ki−ΔV1/2 (inactivated state affinity)): 7.9 µM; Kr ([1]; in words): low Kr; difference between Kr and IC50 [3]: no difference; τoff ([3]; 300 μM): 64.97 s; τon ([3]; 300 μM, 3 s assigned where too short to be resolved): 20.04 s; UD (use-dependence of the inhibition) ([3]; 300 μM, 5 Hz train): 1.34; Rev (reversibility) ([3]; 300 μM, Rev = A5/A1 after washout): 0.57; inhibition at 300 µM ([3]; HEK293, 300 μM, −90 mV holding potential, 5 Hz train, read-out: Inh (inhibited fraction)): 82%; potency estimated from few doses ([3]; HEK293, calculated from Inh at single concentration 300 μM, 5 Hz train): 67.6 µM"
–,33%,–,–,–,–,–,–,–,"Nc1c(Br)cc(Br)cc1CN[C@H]1CC[C@H](O)CC1 [AMB, Ambroxol]",–,–,8.17 µM,110 µM,"Ki [1, 10]: 18.6 µM; Ki [1, 11]: 12.8 µM; Kd [1, 12]: 201 µM; Kd [1, 13]: 201 µM; Ki [1, 14]: 17.6 µM; Ki [1, 15]: 12.2 µM; τon ([3]; 100 μM): 5.74 s; UD (use-dependence of the inhibition) ([3]; 100 μM, 5 Hz train): 1.24; τoff [3, 16]: 6.78 s; Rev (reversibility) [3, 17]: 0.81; inhibition at 100 µM [3, 18]: 51%; potency estimated from few doses [3, 19]: 95.9 µM"
13%,–,14.38 s,1.09,22.28 s,–,–,23.6 µM,0.37,"Cc1nc2sccn2c(=O)c1CCN1CCC(=C(c2ccc(F)cc2)c2ccc(F)cc2)CC1 [RIT, Ritanserin]",0.14 [54] µg/ml,0.299 µM,–,–,"ΔV1/2 (shift of availability curve) ([1]; 30 μM): −7.28 mV; Ki [1, 20]: 6.52 µM; Ki [1, 21]: 7.69 µM; Kd [1, 22]: 225 µM; Kd [1, 23]: 206 µM; Ki [1, 24]: 6.1 µM and 6.13 µM; Ki [1, 25]: 7.1 µM"
20%,–,7.24 s,1.25,14.41 s,–,28%,42.5 µM,0.18,"CN(C)CC/C=C1/c2ccccc2Sc2ccc(Cl)cc21 [CHX, Chlorprothixene]",0.07 [50] µg/ml,0.200 µM,–,–,"ΔV1/2 (shift of availability curve) ([1]; 30 μM): −15.8 mV; Ki [1, 20]: 2.21 µM; Ki [1, 21]: 1.14 µM; Kd [1, 22]: 144 µM; Kd [1, 23]: 128 µM; Ki [1, 24]: 1.74 µM; Ki [1, 25]: 0.73 µM"

Structure (SMILES),"inhibition at 30 µM [1, 4]","inhibition at 100 µM [1, 5]",τon ([3]; 30 μM),"UD (use-dependence of the inhibition) ([3]; 30 μM, 5 Hz train)","τoff [3, 6]",use-dependence (UD) ([3]; 5 Hz train),"inhibition at 30 µM [3, 7]","potency estimated from few doses [3, 8]","Rev (reversibility) [3, 9]",plasma conc. ([2]; as printed in each cell),plasma conc. ([2]; as printed in the µg/ml cell),Ki (sodium channels),Kd (sodium channels),other results
"Nc1nc2ccc(OC(F)(F)F)cc2s1 [RIL, Riluzole]",8%,22%,3.9 s,0.95,17.6 s,no use-dependence,27%,81 µM,–,0.17 [44] µg/ml,0.739 µM,0.49 µM,62.4 µM,Rev (reversibility) [3]: 0.52

# — PMC3004914, “Classification of Drugs Based on Properties of Sodium Channel Inhibition: A Comparative Automated Patch-Clamp Study” (PLoS ONE, 2010)
